Test results reported in US8673325B1, “Cosmetic compositions comprising EPA and salicylic acid and methods of making and using same” (Dignity Sciences Limited, priority 2012, dated 2014).
Converted amounts (≈) assume the structure as drawn. Read-outs that look alike come from different tables or passages of the source.

Tested on: P. acnes NCTC737
Assay: MIC and MBC against P. acnes by broth micro-dilution (CLSI M11-A5)
Type: cell-based
Conditions: for MIC: anaerobic 37° C., 48 h, lowest concentration preventing visible growth
Procedure: Neomycin (“NEO”) was obtained and used as a 10 mg/mL solution in sterile saline. P. acnes NCTC737 was obtained from the National Collection of Type Cultures (Porton Down, UK). Minimum inhibitory (MIC) and bactericidal (MBC) concentration determinations MICs and MBCs were determined against P. acnes by broth micro-dilution according to protocol M11-A5 published by the Clinical and Laboratory Standards Institute (CLSI, 2001). […] ([…] Workstation; Don Whitley Scientific Ltd., Shipley, UK). Absorbance readings (A600) for the bacterial suspensions were determined and fresh media was used to adjust the inoculums to 1×10^7 CFU/mL. Inoculum sizes were confirmed by diluting in phosphate-buffered saline (PBS) and plating on SBA. Each well was inoculated with 5 μL of bacterial suspension. Negative control wells contained culture medium only, while positive control wells contained media inoculated with bacterial suspension. Further inoculated wells controlled for the antimicrobial effects of the greatest concentration of solvent (DMSO or ethanol) used in any of the test wells (ca. 10%). Microtitre plates were incubated anaerobically at 37° C. for 48 h, and then MICs were determined as the lowest concentration of each compound that prevented visible bacterial growth. MBCs were determined by plating 50 μL from each well showing no visible growth on to SBA and incubating these plates anaerobically at 37° C. for 96 h. […] MICs and MBCs were performed in duplicate.

[1] = Cutibacterium acnes, NCTC737, 48 h, read-out: MIC
[2] = Cutibacterium acnes, NCTC737, lowest concentration that killed >99.9% of the initial inoculum, read-out: MBC

| MIC [1] [mg/L] | MIC [mg/L] | Compound | MBC (MEC) [mg/L] | MBC [2] [mg/L] | MBC (lowest concentration that killed >99.9% of the initial inoculum) [mg/L] |
| --- | --- | --- | --- | --- | --- |
| > 4100 | >4096 | O=C(O)CCCCCCCC(=O)O [AZA, azelaic acid] | >4096 |  |  |
| 64 to 128 (≈ 212 to 423 µM) | 128 (≈ 423 µM) | CC/C=C\C/C=C\C/C=C\C/C=C\C/C=C\CCCC(=O)O [EPA, eicosapentaenoic acid] | >4096 | > 4100 |  |
| 2 (≈ 6.05 µM) |  | NS(=O)(=O)c1cc(C(=O)O)c(NCc2ccco2)cc1Cl [FUS, furosemide] | 256 (≈ 774 µM) | 256 (≈ 774 µM) |  |
|  | 8 (≈ 13 µM) | NC[C@@H]1O[C@H](O[C@H]2[C@@H](O)[C@H](O[C@@H]3[C@@H](O)[C@H](N)C[C@H](N)[C@H]3O[C@H]3O[C@H](CN)[C@@H](O)[C@H](O)[C@H]3N)O[C@@H]2CO)[C@H](N)[C@@H](O)[C@@H]1O [NEO, Neomycin] | 16 (≈ 26 µM) |  | 16 (≈ 26 µM) |

Continued, molecule first:

| Compound | MIC [1] [mg/L] | MIC [mg/L] | MBC (MEC) [mg/L] | MBC [2] [mg/L] | MBC (lowest concentration that killed >99.9% of the initial inoculum) [mg/L] |
| --- | --- | --- | --- | --- | --- |
| O=C(OOC(=O)c1ccccc1)c1ccccc1 [BPO, benzoyl peroxide] | 64 (≈ 264 µM) |  | >4096 | > 4100 |  |
| CCCCC/C=C\C/C=C\C/C=C\CCCCC(=O)O [GLA, gamma-linolenic acid] | 64 to 128 (≈ 230 to 460 µM) | 64 (≈ 230 µM) | >4096 | > 4100 |  |
| O=C(O)c1ccccc1O [SA, salicylic acid] | 64 (≈ 463 µM) |  | >4096 | > 4100 |  |
